Laboratory results as given in ChEMBL document CHEMBL3627608, “Crystal structures of human RIP2 kinase catalytic domain complexed with ATP-competitive inhibitors: Foundations for understanding inhibitor selectivity” (Bioorg Med Chem, 2015).

Columns and labels:
[1] = molecular target: Serine/threonine-protein kinase Nek7 (Homo sapiens) (UniProt Q8TDX7); experiment: Inhibition of NEK7 (unknown origin) at 10 uM after 120 mins P33 radiolabeled kinase activity assay
[2] = molecular target: Platelet-derived growth factor receptor beta (Homo sapiens) (UniProt P09619); experiment: Inhibition of PDGFRbeta (unknown origin) at 10 uM after 120 mins P33 radiolabeled kinase activity assay
Sequence of Platelet-derived growth factor receptor beta (Homo sapiens) (P09619 whole entry): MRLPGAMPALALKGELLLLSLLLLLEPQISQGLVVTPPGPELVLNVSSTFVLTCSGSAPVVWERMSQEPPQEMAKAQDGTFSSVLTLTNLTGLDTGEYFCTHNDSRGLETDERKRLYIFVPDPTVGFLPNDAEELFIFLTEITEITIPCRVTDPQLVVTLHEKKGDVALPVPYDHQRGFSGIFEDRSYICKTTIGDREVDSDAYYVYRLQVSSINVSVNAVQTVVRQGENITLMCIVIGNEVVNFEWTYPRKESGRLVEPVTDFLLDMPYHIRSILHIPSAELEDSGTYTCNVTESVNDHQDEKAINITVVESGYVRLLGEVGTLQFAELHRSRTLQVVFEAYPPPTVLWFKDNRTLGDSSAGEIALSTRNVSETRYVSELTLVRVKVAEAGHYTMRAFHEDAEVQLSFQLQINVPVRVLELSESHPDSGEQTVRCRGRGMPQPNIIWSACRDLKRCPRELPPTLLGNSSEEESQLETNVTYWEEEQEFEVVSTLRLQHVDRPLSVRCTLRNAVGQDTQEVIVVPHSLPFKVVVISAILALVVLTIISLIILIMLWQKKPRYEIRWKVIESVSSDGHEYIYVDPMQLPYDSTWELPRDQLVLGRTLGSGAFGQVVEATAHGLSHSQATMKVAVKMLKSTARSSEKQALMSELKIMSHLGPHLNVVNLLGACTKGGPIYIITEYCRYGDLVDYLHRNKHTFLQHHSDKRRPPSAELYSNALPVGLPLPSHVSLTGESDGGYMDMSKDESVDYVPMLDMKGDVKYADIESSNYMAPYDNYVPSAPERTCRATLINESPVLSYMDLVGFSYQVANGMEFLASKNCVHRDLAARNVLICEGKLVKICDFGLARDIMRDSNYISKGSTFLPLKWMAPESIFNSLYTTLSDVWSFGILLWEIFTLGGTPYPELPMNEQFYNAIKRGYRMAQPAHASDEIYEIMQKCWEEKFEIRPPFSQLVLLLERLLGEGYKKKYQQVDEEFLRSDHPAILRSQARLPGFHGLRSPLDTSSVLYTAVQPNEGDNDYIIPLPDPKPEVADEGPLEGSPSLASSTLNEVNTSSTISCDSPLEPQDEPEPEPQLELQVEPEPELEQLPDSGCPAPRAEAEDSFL

[3] = molecular target: cAMP-dependent protein kinase (PKA) (Homo sapiens) (UniProt P22694+P17612+P22612); experiment: Inhibition of PKA (unknown origin) at 10 uM after 120 mins P33 radiolabeled kinase activity assay; format: protein assay
[4] = molecular target: Receptor-interacting serine/threonine-protein kinase 3 (Homo sapiens) (UniProt Q9Y572); experiment: Inhibition of RIPK3 (unknown origin) at 10 uM after 120 mins P33 radiolabeled kinase activity assay
Sequence of Receptor-interacting serine/threonine-protein kinase 3 (Homo sapiens) (Q9Y572 whole entry, looked up): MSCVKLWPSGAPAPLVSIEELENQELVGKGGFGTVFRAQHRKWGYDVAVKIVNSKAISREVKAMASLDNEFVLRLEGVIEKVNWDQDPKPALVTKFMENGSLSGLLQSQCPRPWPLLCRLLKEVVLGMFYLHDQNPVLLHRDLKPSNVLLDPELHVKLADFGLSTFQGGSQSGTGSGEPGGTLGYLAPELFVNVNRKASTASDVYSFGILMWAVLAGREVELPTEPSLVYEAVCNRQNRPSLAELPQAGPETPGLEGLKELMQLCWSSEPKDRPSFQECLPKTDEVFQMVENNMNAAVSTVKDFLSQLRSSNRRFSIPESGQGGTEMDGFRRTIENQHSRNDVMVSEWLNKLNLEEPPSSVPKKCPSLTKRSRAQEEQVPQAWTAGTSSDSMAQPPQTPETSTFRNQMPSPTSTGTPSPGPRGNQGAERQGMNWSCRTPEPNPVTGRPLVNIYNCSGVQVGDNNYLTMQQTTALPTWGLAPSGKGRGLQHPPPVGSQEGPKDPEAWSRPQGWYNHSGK

[5] = molecular target: Interleukin-1 receptor-associated kinase 4 (Homo sapiens) (UniProt Q9NWZ3); experiment: Inhibition of IRAK4 (unknown origin) at 10 uM after 120 mins P33 radiolabeled kinase activity assay
[6] = molecular target: Tyrosine-protein kinase JAK1 (Homo sapiens) (UniProt P23458); experiment: Inhibition of JAK1 (unknown origin) at 10 uM after 120 mins P33 radiolabeled kinase activity assay
Sequence of Tyrosine-protein kinase JAK1 (Homo sapiens) (P23458 whole entry): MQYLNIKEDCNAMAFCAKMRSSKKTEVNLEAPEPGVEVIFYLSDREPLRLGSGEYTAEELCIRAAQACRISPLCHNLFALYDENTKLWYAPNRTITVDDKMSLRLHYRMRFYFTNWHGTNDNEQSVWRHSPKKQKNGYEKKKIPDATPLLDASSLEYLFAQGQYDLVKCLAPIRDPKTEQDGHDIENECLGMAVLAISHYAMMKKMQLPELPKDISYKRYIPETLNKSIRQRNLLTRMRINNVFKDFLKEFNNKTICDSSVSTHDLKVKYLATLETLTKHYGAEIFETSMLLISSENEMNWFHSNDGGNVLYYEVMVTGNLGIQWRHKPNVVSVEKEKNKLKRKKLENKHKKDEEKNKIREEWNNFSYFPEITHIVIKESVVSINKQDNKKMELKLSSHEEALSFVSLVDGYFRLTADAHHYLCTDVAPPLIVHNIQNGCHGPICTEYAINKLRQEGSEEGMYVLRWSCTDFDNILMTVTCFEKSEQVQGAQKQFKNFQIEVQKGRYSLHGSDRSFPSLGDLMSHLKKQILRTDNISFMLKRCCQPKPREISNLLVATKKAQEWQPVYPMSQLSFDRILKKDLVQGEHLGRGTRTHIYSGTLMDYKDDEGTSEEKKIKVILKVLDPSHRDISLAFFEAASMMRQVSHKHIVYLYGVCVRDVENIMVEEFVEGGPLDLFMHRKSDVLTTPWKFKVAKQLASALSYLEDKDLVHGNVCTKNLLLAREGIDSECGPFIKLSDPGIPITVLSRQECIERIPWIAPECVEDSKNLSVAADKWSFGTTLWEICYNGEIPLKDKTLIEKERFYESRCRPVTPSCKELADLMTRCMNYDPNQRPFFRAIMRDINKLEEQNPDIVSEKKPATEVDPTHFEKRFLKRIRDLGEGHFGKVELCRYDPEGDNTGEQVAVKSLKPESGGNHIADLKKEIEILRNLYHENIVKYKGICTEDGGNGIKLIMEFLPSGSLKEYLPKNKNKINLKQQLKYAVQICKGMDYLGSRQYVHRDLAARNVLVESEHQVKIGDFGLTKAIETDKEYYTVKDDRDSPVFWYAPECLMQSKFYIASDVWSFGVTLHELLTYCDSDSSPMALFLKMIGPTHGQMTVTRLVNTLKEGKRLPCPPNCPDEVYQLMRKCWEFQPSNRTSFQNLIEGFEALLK

[7] = molecular target: Mitogen-activated protein kinase 8 (Homo sapiens) (UniProt P45983); experiment: Inhibition of JNK1 (unknown origin) at 10 uM after 120 mins P33 radiolabeled kinase activity assay
Sequence of Mitogen-activated protein kinase 8 (Homo sapiens) (P45983 whole entry): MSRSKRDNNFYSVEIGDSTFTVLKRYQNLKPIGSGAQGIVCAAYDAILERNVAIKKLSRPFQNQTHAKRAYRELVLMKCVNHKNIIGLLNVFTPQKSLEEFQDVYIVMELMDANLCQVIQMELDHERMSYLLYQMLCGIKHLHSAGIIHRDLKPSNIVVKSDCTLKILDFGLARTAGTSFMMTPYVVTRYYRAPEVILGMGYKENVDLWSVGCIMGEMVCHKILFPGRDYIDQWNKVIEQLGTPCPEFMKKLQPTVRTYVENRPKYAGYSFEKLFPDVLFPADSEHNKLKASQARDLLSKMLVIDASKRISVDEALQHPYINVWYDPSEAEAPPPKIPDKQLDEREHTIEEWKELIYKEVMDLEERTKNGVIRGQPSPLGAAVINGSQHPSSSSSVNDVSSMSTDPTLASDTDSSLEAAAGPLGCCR

[8] = molecular target: Ribosomal protein S6 kinase alpha-4 (Homo sapiens) (UniProt O75676); experiment: Inhibition of MSK2 (unknown origin) at 10 uM after 120 mins P33 radiolabeled kinase activity assay
Sequence of Ribosomal protein S6 kinase alpha-4 (Homo sapiens) (O75676 whole entry, looked up): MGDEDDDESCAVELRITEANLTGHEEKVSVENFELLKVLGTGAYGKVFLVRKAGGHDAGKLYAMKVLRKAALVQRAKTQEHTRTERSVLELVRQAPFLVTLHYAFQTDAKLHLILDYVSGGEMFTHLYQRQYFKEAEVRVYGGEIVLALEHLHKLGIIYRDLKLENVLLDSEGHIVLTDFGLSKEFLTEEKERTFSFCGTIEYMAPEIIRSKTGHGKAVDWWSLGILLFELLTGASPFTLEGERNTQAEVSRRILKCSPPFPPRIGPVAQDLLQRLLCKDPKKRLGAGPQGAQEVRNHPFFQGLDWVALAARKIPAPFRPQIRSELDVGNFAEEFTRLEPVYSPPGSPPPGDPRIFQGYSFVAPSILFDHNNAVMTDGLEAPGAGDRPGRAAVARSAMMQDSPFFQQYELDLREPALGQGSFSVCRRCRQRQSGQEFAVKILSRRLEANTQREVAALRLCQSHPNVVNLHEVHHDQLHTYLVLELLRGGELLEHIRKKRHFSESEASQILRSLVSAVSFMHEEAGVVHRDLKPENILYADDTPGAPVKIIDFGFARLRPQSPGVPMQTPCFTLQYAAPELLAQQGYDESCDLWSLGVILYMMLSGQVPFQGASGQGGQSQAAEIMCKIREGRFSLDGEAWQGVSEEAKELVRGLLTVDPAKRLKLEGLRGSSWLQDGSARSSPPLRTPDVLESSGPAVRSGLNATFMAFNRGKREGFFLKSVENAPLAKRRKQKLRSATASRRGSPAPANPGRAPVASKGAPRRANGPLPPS

[9] = molecular target: Testis-specific serine/threonine-protein kinase 6 (Homo sapiens) (UniProt Q9BXA6); experiment: Inhibition of SSTK (unknown origin) at 10 uM after 120 mins P33 radiolabeled kinase activity assay
Sequence of Testis-specific serine/threonine-protein kinase 6 (Homo sapiens) (Q9BXA6 whole entry): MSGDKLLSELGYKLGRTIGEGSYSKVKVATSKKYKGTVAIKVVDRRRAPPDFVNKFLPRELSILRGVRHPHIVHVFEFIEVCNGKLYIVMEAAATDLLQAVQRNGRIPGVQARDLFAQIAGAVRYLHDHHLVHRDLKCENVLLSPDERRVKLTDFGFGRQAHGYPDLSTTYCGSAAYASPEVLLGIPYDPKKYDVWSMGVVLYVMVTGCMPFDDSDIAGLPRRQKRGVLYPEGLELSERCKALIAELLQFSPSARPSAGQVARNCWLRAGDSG

[10] = molecular target: Serine/threonine-protein kinase VRK2 (Homo sapiens) (UniProt Q86Y07); experiment: Inhibition of VRK2 (unknown origin) at 10 uM after 120 mins P33 radiolabeled kinase activity assay
[11] = molecular target: T1, NUAK family SNF1-like kinase 1 (Homo sapiens) (UniProt O60285); experiment: Inhibition of ARK5 (unknown origin) at 10 uM after 120 mins P33 radiolabeled kinase activity assay
T1 sequence (whole entry): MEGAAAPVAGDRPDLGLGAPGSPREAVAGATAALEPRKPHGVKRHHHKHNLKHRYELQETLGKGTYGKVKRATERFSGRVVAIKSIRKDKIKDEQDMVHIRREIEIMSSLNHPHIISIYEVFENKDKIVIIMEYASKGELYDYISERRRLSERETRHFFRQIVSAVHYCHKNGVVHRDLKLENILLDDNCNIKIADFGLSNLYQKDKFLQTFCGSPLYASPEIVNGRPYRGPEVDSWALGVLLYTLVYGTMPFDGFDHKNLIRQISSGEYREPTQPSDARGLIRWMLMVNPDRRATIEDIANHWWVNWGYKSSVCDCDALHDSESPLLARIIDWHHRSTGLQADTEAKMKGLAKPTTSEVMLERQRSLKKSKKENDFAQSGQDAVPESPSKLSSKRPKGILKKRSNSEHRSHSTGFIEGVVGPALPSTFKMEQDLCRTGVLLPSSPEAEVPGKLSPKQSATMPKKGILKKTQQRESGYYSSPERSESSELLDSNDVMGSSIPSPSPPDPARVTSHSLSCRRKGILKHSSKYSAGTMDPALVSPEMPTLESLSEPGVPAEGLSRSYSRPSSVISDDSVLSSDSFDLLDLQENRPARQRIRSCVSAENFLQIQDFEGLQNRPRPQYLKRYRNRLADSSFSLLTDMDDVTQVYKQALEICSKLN

[12] = molecular target: T2, Kinase suppressor of Ras 2 (Homo sapiens) (UniProt Q6VAB6); experiment: Inhibition of KSR2 (unknown origin) at 10 uM after 120 mins P33 radiolabeled kinase activity assay
T2 sequence (whole entry): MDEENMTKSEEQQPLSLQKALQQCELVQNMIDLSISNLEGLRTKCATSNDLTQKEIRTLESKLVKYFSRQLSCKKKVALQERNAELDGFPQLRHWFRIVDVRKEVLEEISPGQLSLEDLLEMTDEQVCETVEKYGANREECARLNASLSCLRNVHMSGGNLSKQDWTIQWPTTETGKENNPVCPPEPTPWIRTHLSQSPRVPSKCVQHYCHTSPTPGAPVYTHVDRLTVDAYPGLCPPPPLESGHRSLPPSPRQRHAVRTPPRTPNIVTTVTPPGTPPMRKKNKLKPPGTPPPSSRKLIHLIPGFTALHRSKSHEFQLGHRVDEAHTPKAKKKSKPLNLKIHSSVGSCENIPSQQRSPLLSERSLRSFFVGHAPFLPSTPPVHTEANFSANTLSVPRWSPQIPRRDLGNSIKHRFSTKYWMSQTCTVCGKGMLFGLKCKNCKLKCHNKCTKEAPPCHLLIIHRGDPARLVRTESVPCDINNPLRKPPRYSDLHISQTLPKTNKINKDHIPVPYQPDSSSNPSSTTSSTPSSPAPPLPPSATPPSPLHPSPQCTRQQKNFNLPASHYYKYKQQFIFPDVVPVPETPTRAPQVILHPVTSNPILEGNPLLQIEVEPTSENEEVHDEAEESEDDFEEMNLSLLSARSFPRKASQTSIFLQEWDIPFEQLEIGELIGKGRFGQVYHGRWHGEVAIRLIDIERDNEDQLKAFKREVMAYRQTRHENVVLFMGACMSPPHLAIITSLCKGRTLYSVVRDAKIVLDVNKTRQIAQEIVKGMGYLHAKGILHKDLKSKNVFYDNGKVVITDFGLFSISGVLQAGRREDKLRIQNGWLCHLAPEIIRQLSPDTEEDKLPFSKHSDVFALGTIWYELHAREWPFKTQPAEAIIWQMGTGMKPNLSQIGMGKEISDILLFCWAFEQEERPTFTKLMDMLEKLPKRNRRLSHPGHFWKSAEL

[13] = molecular target: Calcium/calmodulin-dependent protein kinase kinase 1 (Homo sapiens) (UniProt Q8N5S9); experiment: Inhibition of CAMKK1 (unknown origin) at 10 uM after 120 mins P33 radiolabeled kinase activity assay
[14] = molecular target: Mitogen-activated protein kinase kinase kinase kinase 2 (Homo sapiens) (UniProt Q12851); experiment: Inhibition of GCK (unknown origin) at 10 uM after 120 mins P33 radiolabeled kinase activity assay
Sequence of Mitogen-activated protein kinase kinase kinase kinase 2 (Homo sapiens) (Q12851 whole entry, looked up): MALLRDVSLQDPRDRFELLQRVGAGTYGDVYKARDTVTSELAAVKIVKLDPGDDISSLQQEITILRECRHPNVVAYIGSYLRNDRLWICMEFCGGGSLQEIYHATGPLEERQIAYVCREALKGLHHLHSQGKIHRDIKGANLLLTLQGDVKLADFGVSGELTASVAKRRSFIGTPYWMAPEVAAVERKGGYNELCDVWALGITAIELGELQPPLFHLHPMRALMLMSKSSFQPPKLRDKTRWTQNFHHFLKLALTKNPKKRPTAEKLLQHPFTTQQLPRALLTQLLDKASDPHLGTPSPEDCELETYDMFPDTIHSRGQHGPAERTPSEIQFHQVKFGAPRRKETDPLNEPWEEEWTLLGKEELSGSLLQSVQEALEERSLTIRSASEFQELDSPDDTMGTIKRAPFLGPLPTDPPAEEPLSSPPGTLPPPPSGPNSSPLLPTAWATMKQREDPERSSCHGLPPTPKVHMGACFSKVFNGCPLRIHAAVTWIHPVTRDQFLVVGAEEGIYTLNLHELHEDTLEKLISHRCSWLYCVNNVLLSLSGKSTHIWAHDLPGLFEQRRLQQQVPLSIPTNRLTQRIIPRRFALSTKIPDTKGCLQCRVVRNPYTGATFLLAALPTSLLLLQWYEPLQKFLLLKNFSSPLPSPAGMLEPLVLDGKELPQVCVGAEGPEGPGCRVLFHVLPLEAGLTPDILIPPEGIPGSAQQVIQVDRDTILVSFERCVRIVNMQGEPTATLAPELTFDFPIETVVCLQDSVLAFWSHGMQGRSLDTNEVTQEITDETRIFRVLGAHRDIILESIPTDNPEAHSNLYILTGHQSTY

[15] = molecular target: Serine/threonine-protein kinase Sgk2 (Homo sapiens) (UniProt Q9HBY8); experiment: Inhibition of SGK2 (unknown origin) at 10 uM after 120 mins P33 radiolabeled kinase activity assay
[16] = molecular target: Calcium/calmodulin-dependent protein kinase kinase 2 (Homo sapiens) (UniProt Q96RR4); experiment: Inhibition of CAMKK2 (unknown origin) at 10 uM after 120 mins P33 radiolabeled kinase activity assay
[17] = molecular target: Cyclin-Y/Cyclin-dependent kinase 16 (Homo sapiens) (UniProt Q00536+Q8ND76); experiment: Inhibition of CDK16/cyclin Y (unknown origin) at 10 uM after 120 mins P33 radiolabeled kinase activity assay; format: protein-complex assay

SMILES | inhibition [1] [%] | inhibition [2] [%] | inhibition [3] [%] | inhibition [4] [%] | inhibition [5] [%] | inhibition [6] [%] | inhibition [7] [%] | inhibition [8] [%] | inhibition [9] [%] | inhibition [10] [%] | inhibition [11] [%] | inhibition [12] [%] | inhibition [13] [%] | inhibition [14] [%] | inhibition [15] [%] | inhibition [16] [%] | inhibition [17] [%]
COCCNC(=O)c1ccc2c(c1)nc(-c1cnc(-c3ccc(Cl)cc3)[nH]1)n2CCOC | 6.02 | 11.1 | 7.76 | 27.6 | 13.9 | 5.2 | 2.55 | 4.4 | -0.51 | -4.56 | 7.6 | 3.38 | -7.72 | -3.21 |  |  | 
CS(=O)(=O)c1cccc(Nc2nccc(-c3sc(N4CCOCC4)nc3-c3cccc(NS(=O)(=O)c4c(F)cccc4F)c3)n2)c1 | 33.7 | 91 | 6.72 | 83.1 |  | -2.11 | 31.4 | 19.5 |  |  | 41.1 | 1.08 |  | -0.78 | 50 | -1.4 | 92
CC(C)(C)c1cc(NC(=O)Nc2ccc(Oc3ccncc3)cc2)no1 |  | 99.5 | 80.5 | 81.4 | 24.7 | -3.4 | 14.2 | 70.5 | 7.1 | -5.34 | -0.15 | 3.41 | 60.5 | 57.4 | 15.5 | 54.2 | 84.5
